The text below walks through data of patent publication US7183383B2, “Uses of collagen IV” (The University of Arkansas for Medical Sciences, priority 2002, dated 2007).

Holding throughout (type): cell-based, rabbit
The test system of series [1] is renal proximal tubular cells. Nature of the series: Cell density (monolayer protein content) in DCVC-injured RPTC. The conditions noted are these: for monolayer protein content in injured RPTC: day 1 or day 6 after DCVC, 50 μg/ml. The protocol: Rabbit renal proximal tubules were isolated using the iron oxide perfusion method and grown in 35-mm tissue culture dishes or 48-well cell culture clusters under improved conditions as previously described (35, 36). The cell culture medium was a 1:1 mixture of DMEM/Ham's F-12 (without D-glucose, phenol red, or sodium pyruvate) supplemented with 15 mM HEPES buffer, 2.5 mM L-glutamine, 1 μM pyridoxine HCl, 15 mM sodium bicarbonate, and 6 mM lactate. Hydrocortisone (50 nM), selenium (5 ng/ml), human transferrin (5 μg/ml), bovine insulin (10 nM), and L-ascorbic acid-2-phosphate (50 μM or 500 μM) were added to fresh culture medium immediately prior to daily media change. L-Ascorbic acid-2-phosphate (AscP) was used due to the fact that L-ascorbic acid is unstable in culture media. AscP is stable in culture media for ≧7 days at 37° C. and, after intracellular dephosphorylation, has the same effect on cultured cells as L-ascorbic acid (13).
(§1) Confluent monolayers of renal proximal tubular cells (day 6 after seeding) were exposed to 200 μM S-(1,2-dichlorovinyl)-L-cysteine (dissolved in water) for 1.75 hours followed by toxicant removal and addition of fresh culture media. This method produces approximately 50% cell death and loss 24 hours after the exposure. On days 1, 4, and 6 following S-(1,2-dichlorovinyl)-L-cysteine exposure, the ability of the remaining renal proximal tubular cells to regenerate and repair physiological function was monitored as described below. In some experiments, immediately after S-(1,2-dichlorovinyl)-L-cysteine exposure and after daily media change through day 6 after injury, collagen I (0, 5, 15, or 50 μg/ml), collagen IV (0, 5, 15, or 50 μg/ml), laminin (50 μg/ml), or cellular fibronectin (50 μg/ml) was added to the culture media of uninjured and S-(1,2-dichlorovinyl)-L-cysteine-injured renal proximal tubular cells grown in physiological concentrations of AscP. Exogenous collagens I and IV used in this study were triple helical and contained only α1 and α2 chains in conformations similar to those found in the renal basement membrane (3, 25). Laminin was a mixture of biologically active laminin chains found in most epithelial tissues (8, 50) and cellular fibronectin was composed of functional dimers (51).
Measurement of monolayer protein content over time was used to estimate cell density. On days 1, 4, and 6 after sublethal S-(1,2-dichlorovinyl)-L-cysteine injury, renal proximal tubular cell monolayers were washed with PBS and solubilized in Triton buffer (0.05% Triton X-100, 100 mM Tris-Base, 150 mM NaCl, pH 7.5). Samples were sonicated and protein concentrations determined using the method of Lowry (26) or the bicinchoninic acid microassay according to the manufacturer's instructions (Pierce, Rockford, Ill.).

For series [2], the system named is Na^+/K^+-ATPase activity in renal proximal tubular cells. The series can be described thus: Na^+/K^+-ATPase activity (ouabain-sensitive ATPase). The conditions noted are these: day 6 after DCVC injury; 50 μg/ml. As for the experimental part:
as §1
On days 1 and 6 after sublethal S-(1,2-dichlorovinyl)-L-cysteine injury, total ATPase activity was measured using a modification of a previously described procedure (44). Briefly, renal proximal tubular cells cultured in 48-well cell culture clusters were scraped and incubated in dissociation buffer (5 mM HEPES (pH 7.4), 25 mM imidazole, 1% BSA, 0.065% sodium dodecyl sulfate (SDS)) for 10 min. at room temperature and placed on ice. The dissociated renal proximal tubular cells were then diluted 5-fold with additional dissociation buffer minus SDS. Aliquots of dissociated renal proximal tubular cells were combined with fresh ATPase assay buffer (2.54 mM MgCl2, 100 mM NaCl, 10 mM KCl, 5 mM HEPES, 10 U/ml lactate dehydrogenase, 7 U/ml pyruvate kinase, 2.54 mM Na2ATP, 2.54 mM phospho(enol)pyruvate, and 0.5 mM β-NADH). ATPase activity was measured under linear conditions spectrophotometrically as the oxidation of β-NADH to NAD^+ at 37° C. in the absence or presence of ouabain (0.1 mM) at a wavelength of 340 nm. Na^+/K^+-ATPase activity was calculated as total ATPase activity minus ouabain-insensitive ATPase activity.
Confluent monolayers of renal proximal tubular cells (day 6 after seeding) were exposed to 200 μM S-(1,2-dichlorovinyl)-L-cysteine (dissolved in water) for 1.75 hours followed by toxicant removal and addition of fresh culture media. This method produces approximately 50% cell death and loss 24 hours after the exposure. In some experiments, exogenous collagen IV (50 μg/ml), collagen I (50 μg/ml), or function-stimulating antibodies to collagen-binding integrin subunits α2 or β1 (5 μg/ml) was added daily to the culture media of S-(1,2-dichlorovinyl)-L-cysteine-injured renal proximal tubular cells cultured in the absence of pharmacological concentrations of L-ascorbic acid-2-phosphate. Function-stimulating antibodies to collagen-binding integrin α1 are not commercially available at this time. On days 1 and 6 following S-(1,2-dichlorovinyl)-L-cysteine exposure, active Na^+ transport or Na^+/K^+-ATPase activity, and collagen-binding integrin expression and/or localization in the remaining sublethally injured renal proximal tubular cells was determined as described below.
Total ATPase activity was measured as described above. […]

For series [3], the system named is renal proximal tubular cells. The series can be described thus: Basal oxygen consumption (QO2), a measure of mitochondrial function. As for the experimental part: as §1
On days 1, 4, and 6 after sublethal S-(1,2-dichlorovinyl)L-cysteine injury, renal proximal tubular cells bathed in 37° C. culture medium were gently detached from culture dishes with a rubber policeman and transferred to a 37° C. oxygen consumption (QO2) chamber. Basal renal proximal tubular cells QO2 was measured polarographically using a Clark-type electrode as described previously (36).

Setting [4] is: day 1 after DCVC injury, in presence of exogenous protein.
[5] abbreviates: day 6 after DCVC injury, 5, 15, 50 μg/ml.
Where [6] appears, read: uninjured RPTC, days 1 or 6, exogenous protein.

Regarding “collagen I: Rat tail collagen I; triple helical, containing only α1 and α2 chains”, in series [1] (setting [4]), the “decrease in monolayer cell density” value is “approximately 50%”. Also, the “monolayer protein content in injured RPTC” value (“monolayer protein content” for short) in series [1] is “no change”. Further, the cell density entry in series [1] (setting [5]) is on record as “neither increased cell density nor repair of basal QO2”. The “monolayer cell density in untreated RPTC” value in series [1] (setting [6]) is “no effect”. The “Na^+/K^+-ATPase activity in injured RPTC” value in series [2] is on record as “remained inhibited”. Moreover, the “decrease in basal QO2” value in series [3] (setting [4]) was “approximately 50%”. Also, in series [3] (setting [5]), the “repair of basal QO2” value is listed as “neither increased cell density nor repair of basal QO2”. In addition, the “basal QO2 in untreated RPTC” value in series [3] (setting [6]) is “no effect”.
Consider fibronectin, for which the “monolayer protein content” value in series [1] is on record as “no change”. Further, the “Na^+/K^+-ATPase activity in injured RPTC” value in series [2] is “remained inhibited”.
Turning to laminin, the “monolayer protein content” value in series [1] was “no change”. The “Na^+/K^+-ATPase activity in injured RPTC” value in series [2] is on record as “remained inhibited”.
